The record followed here is publication PMC9253027, “Methyl probes in proteins for determining ligand binding mode in weak protein–ligand complexes” (Scientific Reports, 2022).

In this assay the target is T1, EcDsbA (DsbA, oxidized) (Escherichia coli, UniProt P0AEG4).
T1 construct: 21 kDa oxidized EcDsbA
Put plainly: X-ray crystal structure ([…] Å, soaking), intermolecular NOEs/NMR2, KD from HSQC chemical shift perturbation titration. The class given is binding.

pKd: −log10 of the molar value.

T1 sequence (P0AEG4 20-208): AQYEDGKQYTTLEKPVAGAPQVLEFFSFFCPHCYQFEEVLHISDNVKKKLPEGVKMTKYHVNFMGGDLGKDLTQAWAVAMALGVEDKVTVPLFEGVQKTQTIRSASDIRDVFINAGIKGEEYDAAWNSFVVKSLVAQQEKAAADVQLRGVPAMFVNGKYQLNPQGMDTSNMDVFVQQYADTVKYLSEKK

As for `O=C(O)c1sc(CCCc2ccccc2)nc1-c1ccccc1` [compound 1, phenylthiazole 1], the pKd was about 3.05.
